The values below come from patent US10316050B2, “PT (IV) complexes containing 4,4′-disubstituted-2,2′-bipyridyl and their use in cancer therapy” (THE BOARD OF REGENTS OF THE NEVADA SYSTEM OF HIGHER …, priority 2014, dated 2019).

Like-named read-outs stand apart in the source and are kept apart here. A value given as a limit tells only on which side of the number the result lay.

Assay type in all cases: cell-based, human
One assay deals with A549 lung cancer cells. Kind of assay: MTS cell viability assay, A549. As to conditions: for EC50: read-out: EC50 (effective concentration that resulted in 50% cell viability). The procedure:
(§1) Human breast (HCC38, MCF-7, MDA-MB-231, SK-BR-3, T-47D, and ZR-75-1), lung (A549 and H520), and prostate (DU145 and PC-3) cancer cell lines were obtained from American Culture Type Collection (ATCC). The HCC38, MCF-7, MDA-MB-231, SK-BR-3, T-47D, ZR-75-1, and A549 cells were grown in MEM supplemented with 10% FBS, 25 mM HEPES buffer (pH 7.4), penicillin (100 U/mL), and streptomycin (100 μg/mL). The H520, DU145, and PC-3 cell lines were grown in RPMI-1640 supplemented with 10% FBS, 25 mM HEPES buffer (pH 7.4), penicillin (100 U/mL), and streptomycin (100 μg/mL). All cell lines were maintained at 37° C. in a humidified, 5% CO2 atmosphere.
(§2) Cells were cultured at a density of 2-3.5×10^3 cells per well in flat bottomed 96-well plates in 100 μL of complete growth medium and incubated for 2 days to reach ˜50% confluence. The cells were then treated with solvent or the appropriate drugs (CDDP stock was dissolved in 0.15 M NaCl, carboplatin stock was dissolved in 5% glucose, synthesized Pt(IV) complexes were dissolved in DMSO) for 1 hour, washed three times with 100 μL PBS, and incubated in 100 μL of fresh medium. After 2 days, the medium was replaced with 120 μL of medium containing CellTiter 96® Aqueous One Solution Reagent (MTS reagent) (Promega, Madison, Wis.). The cells were incubated at 37° C. for 4 hours and the cell viability was determined by measuring the absorbance at 490 nm using a Tecan Infinite M1000 microplate reader. The 48 h treatment was done in a similar manner, except the cells were not washed after treatment and the MTS reagent was immediately added. Viability of treated groups was calculated as a percent of control and graphed with GraphPad Prism.
(§3) The anti-proliferative activities of Pt(IV) complexes were determined in two lung (A549 and H520), two prostate (DU145 and PC-3), and six breast (HCC38, MCF-7, MDA-MB-231, SK-BR-3, T-47D, and ZR-75-1) cancer cell lines. The cells were treated with increasing concentrations of cisplatin (CDDP), carboplatin, or the Pt(IV) complexes for 1 or 48 hours, and the viability was measured using an MTS colorimetric cell proliferation assay. Graphs of the results are shown for DU145 (FIG. 8A), PC-3 (FIG. 8B), SK-BR-3 (FIG. 8C), ZR-75-1 (FIG. 8D), A549 (FIG. 8E), and MCF-7 (FIG. 8F).
In general terms: Tetrazolium dyes change colour on reduction, which living cells bring about.

The subject of a further assay is H520 lung cancer cells. Kind of assay: MTS cell viability assay, H520. As to conditions: read-out: EC50 (effective concentration that resulted in 50% cell viability). The procedure:
as §1, §2, §3

The subject of assay [1] is DU145 prostate cancer cells. Particulars: for EC50: read-out: EC50 (effective concentration that resulted in 50% cell viability); for effect on cell viability (in words): DU145, 1 hour treatment (FIG. 8A, top), up to 1 mM carboplatin, 100 μM Pt(IV)-1C, 50 μM Pt(IV)-2C. The method, then: as §1, §2, §3
(§4) The anti-proliferative activities of certain Pt(II) complexes were determined in DU145, PC-3, and SK-BR-3 cells. The cells were treated with increasing concentrations of cisplatin (CDDP) or the Pt(II) complexes for 1 or 48 hours, and the viability was measured using an MTS colorimetric cell proliferation assay.

Assay [2] deals with PC-3 prostate cancer cells. Kind of assay: MTS cell viability assay, PC-3. Particulars: read-out: EC50 (effective concentration that resulted in 50% cell viability). The method, then:
as §1, §2, §3, §4

Assay [3] concerns HCC38 breast cancer cells. Kind of assay: MTS cell viability assay, HCC38. Particulars: read-out: EC50 (effective concentration that resulted in 50% cell viability). The method, then:
as §1, §2, §3

For assay [4], the system named is MCF-7 breast cancer cells. Kind of assay: MTS cell viability assay, MCF-7. As to conditions: for EC50: read-out: EC50 (effective concentration that resulted in 50% cell viability). The method, then: as §1, §2, §3
The subject of assay [5] is MDA-MB-231 breast cancer cells. Kind of assay: MTS cell viability assay, MDA-MB-231. As to conditions: read-out: EC50 (effective concentration that resulted in 50% cell viability). The procedure: as §1, §2, §3
Assay [6] has as its system SK-BR-3 breast cancer cells. Kind of assay: MTS cell viability assay, SK-BR-3. As to conditions: read-out: EC50 (effective concentration that resulted in 50% cell viability). The method, then:
as §1, §2, §3, §4

Assay [7] relates to T-47D breast cancer cells. Kind of assay: MTS cell viability assay, T-47D. The procedure: as §1, §2, §3
Assay [8] concerns ZR-75-1 breast cancer cells. Kind of assay: MTS cell viability assay, ZR-75-1. As to conditions: read-out: EC50 (effective concentration that resulted in 50% cell viability). The method, then: as §1, §2, §3
The mark [9] stands for this setting: MDA-MB-231, 1 h treatment, Table 2.
Setting [10] is: MDA-MB-231, 48 h treatment, Table 4.
Where [11] appears, read: SK-BR-3, 1 h treatment, Table 2.
The mark [12] stands for this setting: SK-BR-3, 48 h treatment, Table 4.
[13] abbreviates: 1 h treatment, Table 2, read-out: EC50 (effective concentration that resulted in 50% cell viability).
The mark [14] stands for this setting: 48 h treatment, Table 4, read-out: EC50 (effective concentration that resulted in 50% cell viability).
The mark [15] stands for this setting: ZR-75-1, 1 h treatment, Table 2.
Where [16] appears, read: ZR-75-1, 48 h treatment, Table 4.
The mark [17] stands for this setting: MDA-MB-231, 1 h treatment, Table 3.
The mark [18] stands for this setting: SK-BR-3, 1 h treatment, Table 3.
Setting [19] is: 1 h treatment, Table 3, read-out: EC50 (effective concentration that resulted in 50% cell viability).
The mark [20] stands for this setting: 48 h, Table 5, read-out: EC50 (effective concentration that resulted in 50% cell viability).
Setting [21] is: ZR-75-1, 1 h treatment, Table 3.

Consider `CCCCCOc1ccnc(-c2cc(OCCCCC)ccn2)c1.[Cl][Pt][Cl]` [Pt(II)-5C], for which the EC50 with A549 lung cancer cells (A549, 1 h treatment, Table 2) turned out to be 18 ± 1 µM; with A549 lung cancer cells (A549, 48 h treatment, Table 4), 16.5 ± 0.5 µM; in the assay on H520 lung cancer cells (H520, 1 h treatment, Table 2) it was 23 ± 5 µM; with H520 lung cancer cells (H520, 48 h treatment, Table 4), 17 ± 3 µM; in assay [1] (DU145, 1 h treatment, Table 2), 8 ± 2 µM; in assay [1] (DU145, 48 h treatment, Table 4), 6 ± 0.7 µM. Further, the EC50 in assay [2] (PC-3, 1 h treatment, Table 2) turned out to be 7 ± 1 µM; in [2] (PC-3, 48 h treatment, Table 4) it was 7.3 ± 0.7 µM; in assay [3] (HCC38, 1 h treatment, Table 2), 13 ± 5 µM; in assay [3] (HCC38, 48 h treatment, Table 4), 10 ± 2 µM; in assay [4] (MCF-7, 1 h treatment, Table 2) it was 21 ± 5 µM; in [4] (MCF-7, 48 h treatment, Table 4), 15 ± 7 µM. Also, the EC50 in assay [5] (setting [9]) was 4 ± 2 µM; in assay [5] (setting [10]), 4.1 ± 0.2 µM; in [6] (setting [11]), 2.8 ± 0.8 µM; in assay [6] (setting [12]), 2.4 ± 0.4 µM; in assay [7] (setting [13]), 9 ± 3 µM; in assay [7] (setting [14]), 3 ± 1 µM. For the same molecule, the EC50 came to 8 ± 3 µM in assay [8] (setting [15]) and 6.6 ± 0.7 µM in assay [8] (setting [16]).
As to `CCCCCCOc1ccnc(-c2cc(OCCCCCC)ccn2)c1.[Cl][Pt][Cl]` [Pt(II)-6C], the EC50 is 66 ± 16 µM with A549 lung cancer cells (A549, 1 h treatment, Table 2); 19.1 ± 0.8 µM in the assay on A549 lung cancer cells (A549, 48 h treatment, Table 4); over 50 µM with H520 lung cancer cells (H520, 1 h treatment, Table 2); 18 ± 1 µM with H520 lung cancer cells (H520, 48 h treatment, Table 4); 2.1 ± 0.1 µM in [1] (DU145, 1 h treatment, Table 2); 1.9 ± 0.1 µM in assay [1] (DU145, 48 h treatment, Table 4). Besides, the EC50 in [2] (PC-3, 1 h treatment, Table 2) came out at 2.24 ± 0.03 µM; in assay [2] (PC-3, 48 h treatment, Table 4), 2.7 ± 0.1 µM; in assay [3] (HCC38, 1 h treatment, Table 2) it was 16 ± 5 µM; in assay [3] (HCC38, 48 h treatment, Table 4), 14 ± 4 µM; in assay [4] (MCF-7, 1 h treatment, Table 2) it was 80 ± 30 µM; in [4] (MCF-7, 48 h treatment, Table 4), 12 ± 4 µM. The EC50 amounted to 6 ± 3 µM in assay [5] (setting [9]); 4 ± 1 µM in assay [5] (setting [10]); 1.84 ± 0.03 µM in assay [6] (setting [11]); 1.8 µM in [6] (setting [12]); 3.2 ± 0.8 µM in assay [7] (setting [13]); 2.1 ± 0.2 µM in assay [7] (setting [14]). Also, the EC50 in assay [8] (setting [15]) is 7 ± 2 µM; in [8] (setting [16]), 6.4 ± 0.4 µM.
In the case of `CC(=O)[O][Pt]([Cl])([Cl])[O]C(C)=O.CCOc1ccnc(-c2cc(OCC)ccn2)c1` [Pt(IV)-2C, [Pt(IV)Cl2(OAc)2(4,4′-diethoxy-2,2′-bipyridine)]], the EC50 was over 50 µM in the assay on A549 lung cancer cells (A549, 1 h treatment, Table 3); over 50 µM in the assay with A549 lung cancer cells (A549, 48 h, Table 5); over 100 µM in the assay on H520 lung cancer cells (H520, 1 h treatment, Table 3); 61 ± 2 µM in the assay with H520 lung cancer cells (H520, 48 h, Table 5); over 50 µM in [1] (DU145, 1 h treatment, Table 3); 10 ± 4 µM in assay [1] (DU145, 48 h, Table 5). Moreover, the EC50 in assay [2] (PC-3, 1 h treatment, Table 3) is over 50 µM; in assay [2] (PC-3, 48 h, Table 5) it was 20 ± 2 µM; in assay [3] (HCC38, 1 h treatment, Table 3), 93 ± 10 µM; in [3] (HCC38, 48 h, Table 5), 30 ± 9 µM; in assay [4] (MCF-7, 1 h treatment, Table 3), over 100 µM; in [4] (MCF-7, 48 h, Table 5) it was over 100 µM. Besides, the EC50 was over 100 µM in [5] (setting [17]); 28 ± 7 µM in [5] (MDA-MB-231, 48 h, Table 5); 40 ± 10 µM in assay [6] (setting [18]); 8.3 ± 0.7 µM in assay [6] (SK-BR-3, 48 h, Table 5); 46 ± 8 µM in assay [7] (setting [19]); 0.95 ± 0.03 µM in [7] (setting [20]). For the same molecule, the EC50 in [8] (setting [21]) is over 50 µM; in assay [8] (ZR-75-1, 48 h, Table 5), 17 ± 7 µM. Besides, the “effect on cell viability (in words)” value is given as “had no effect” in the assay on A549 lung cancer cells (A549, 48 hour treatment (FIG. 8E)); “did not have any effects” in [1]; “had no effect” in assay [4] (MCF-7, 48 hour treatment (FIG. 8F)).
Turning to `CC(=O)[O][Pt]([Cl])([Cl])[O]C(C)=O.CCCOc1ccnc(-c2cc(OCCC)ccn2)c1` [Pt(IV)-3C, [Pt(IV)Cl2(OAc)2(4,4′-dipropoxy-2,2′-bipyridine)]], the “effect on cell viability (in words)” value with A549 lung cancer cells (A549, 1 hour treatment, at the concentrations tested (FIG. 8E)) was “did not have any effect”; in assay [1], “least effective among the five active compounds”; in assay [4] (MCF-7, 1 hour treatment, at the concentrations tested (FIG. 8F)) it was “did not have any effect”. Besides, the EC50 in the assay with A549 lung cancer cells (A549, 1 h treatment, Table 3) is over 50 µM; in the assay on A549 lung cancer cells (A549, 48 h, Table 5), 23 ± 1 µM; in the assay with H520 lung cancer cells (H520, 1 h treatment, Table 3), 80 ± 20 µM; with H520 lung cancer cells (H520, 48 h, Table 5) it was 8 ± 6 µM; in assay [1] (DU145, 1 h treatment, Table 3), 24 ± 7 µM; in assay [1] (DU145, 48 h, Table 5) it was 1 ± 1 µM. Moreover, the EC50 in assay [2] (PC-3, 1 h treatment, Table 3) is 23 ± 0.3 µM; in assay [2] (PC-3, 48 h, Table 5), 1.1 ± 0.4 µM; in assay [3] (HCC38, 1 h treatment, Table 3) it was 26 ± 6 µM; in [3] (HCC38, 48 h, Table 5), 8 ± 1 µM; in assay [4] (MCF-7, 1 h treatment, Table 3), over 100 µM; in [4] (MCF-7, 48 h, Table 5), 29 ± 2 µM. Besides, the EC50 in assay [5] (setting [17]) was determined as 34 ± 7 µM; in assay [5] (MDA-MB-231, 48 h, Table 5), 6.1 ± 0.4 µM; in assay [6] (setting [18]), 19 ± 2 µM; in [6] (SK-BR-3, 48 h, Table 5), 0.9 ± 0.1 µM; in assay [7] (setting [19]), 24 ± 3 µM; in [7] (setting [20]), 0.59 ± 0.01 µM. Also, the EC50 in [8] (setting [21]) is 24 ± 3 µM; in assay [8] (ZR-75-1, 48 h, Table 5), 1.21 ± 0.04 µM.
